Among the data in ChEMBL document CHEMBL1130936, “Design, synthesis, and biological activity of novel purine and bicyclic pyrimidine factor Xa inhibitors” (Bioorg Med Chem Lett, 1998) are Ki values, retold here.

For one test, the target named is T1, Serine protease 1 (Bos taurus, UniProt P00760).
T1 sequence (P00760 whole entry): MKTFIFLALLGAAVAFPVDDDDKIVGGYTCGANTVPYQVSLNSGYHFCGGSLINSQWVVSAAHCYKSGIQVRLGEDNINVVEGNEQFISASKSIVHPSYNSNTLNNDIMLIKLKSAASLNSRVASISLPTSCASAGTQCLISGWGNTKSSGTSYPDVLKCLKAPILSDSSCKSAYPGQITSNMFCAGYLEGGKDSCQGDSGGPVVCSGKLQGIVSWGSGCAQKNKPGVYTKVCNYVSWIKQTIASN
Briefly: Compound was tested for inhibitory activity against bovine trypsin.

The next test addresses Prothrombin (Homo sapiens, UniProt P00734). Briefly: Compound was tested for inhibitory activity against human thrombin.
Another test deals with Coagulation factor X (Homo sapiens, UniProt P00742). Briefly: Compound was tested for inhibitory activity against human Coagulation factor X.
Chain of Coagulation factor X (P00742 41-179 limits assumed): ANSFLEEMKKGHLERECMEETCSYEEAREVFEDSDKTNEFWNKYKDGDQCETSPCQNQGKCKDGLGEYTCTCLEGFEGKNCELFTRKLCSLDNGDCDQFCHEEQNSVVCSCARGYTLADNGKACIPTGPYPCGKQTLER
Chain of Coagulation factor X (P00742 235-488 limits assumed): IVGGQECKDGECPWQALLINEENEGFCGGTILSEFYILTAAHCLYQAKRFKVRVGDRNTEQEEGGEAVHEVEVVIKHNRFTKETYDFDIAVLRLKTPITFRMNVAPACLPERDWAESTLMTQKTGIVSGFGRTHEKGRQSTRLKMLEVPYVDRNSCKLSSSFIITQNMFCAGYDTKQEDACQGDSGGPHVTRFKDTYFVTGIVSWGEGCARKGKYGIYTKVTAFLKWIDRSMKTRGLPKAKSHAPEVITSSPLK

In the case of `Cc1nc2c(Oc3cc(C(=N)N)ccc3O)nc(Oc3cccc(C(=O)N(C)C)c3)nc2n1Cc1ccccc1`, the Ki on Serine protease 1 was determined as 150 nM; at Prothrombin, 710 nM; at Coagulation factor X, 0.42 nM.

On Prothrombin, `Cc1c(F)c(Oc2cccc(C(=N)N)c2)nc(Oc2cccc(C(=O)N(C)C)c2)c1F` gave an inhibition constant (Ki) above 5000 nM.

`CN(C)C(=O)c1cccc(Oc2nc(Oc3cc(C(=N)N)ccc3O)nc3c2NC(=O)CO3)c1`: the Ki on Serine protease 1 was above 5000 nM; at Prothrombin, above 5000 nM; on Coagulation factor X it was 106 nM.

As for `N=C(N)c1ccc(/C=C2/CCCC/C(=C/c3ccc(C(=N)N)cc3)C2=O)cc1`, the figures for the inhibition constant (Ki) on Serine protease 1 and on Prothrombin were 30 nM and 430 nM, respectively.

Turning to `Cc1nc2c(Oc3cccc(C(=O)N(C)C)c3)nc(Oc3cc(C(=N)N)ccc3O)nc2n1Cc1ccccc1`, the inhibitory constant (Ki) at Serine protease 1 was found to be 760 nM; at Prothrombin it was 1300 nM; at Coagulation factor X it was 10 nM.

Turning to `CN(C)C(=O)c1cccc(Oc2nc3c(c(Oc4cc(C(=N)N)ccc4O)n2)NC(=O)CN3)c1`, the Ki was 320 nM on Serine protease 1, 1000 nM at Prothrombin and 19 nM at Coagulation factor X.

On to `CN(C)C(=O)c1cccc(Oc2nc(Oc3cc(C(=N)N)ccc3O)nc3c2NC(=O)CN3)c1`, for which the inhibition constant (Ki) on Serine protease 1 was 2200 nM; on Prothrombin, above 5000 nM; on Coagulation factor X, 81 nM.
